Source: patent US9932354B2, “Imidazo-oxadiazole and imidazo-thiadiazole derivatives” (Ares Trading S.A., priority 2012, dated 2018)

Tests used:
[1] = tested on: Amyloid-β peptide release (Aβ42), HEK cells overexpressing APP (HEK-APP); assay: Amyloid-β peptide release (Aβ42) assay, AlphaLISA on supernatant of HEK-APP cells; assay type: cell-based; details: Homo sapiens, HEK293, 24 h incubation with compound, read-out: Ab42 IC50 Ranges
Description: (§1) Amyloid-β Peptide Release (Aβ42 & AβTotal) Assay to Determine IC50 Values.
(§2) Compounds are dissolved in and diluted in 100% DMSO and incubated with HEK-APP cells for 24 h at 37° C. in 5% CO2. The supernatant from HEK-APP cells are mixed with antibodies: for Aβ42 detection: AlphaLISA Amyloid-β 1-42 Kit (Perkin Elmer AL203L) Anti-Amyloid β1-42-specific antibody acceptor beads, biotinylated anti-Amyloid-“β1-42” antibody and streptavidin (SA) donor beads diluted in AlphaLISA buffer (to the instructions of the supplier). For Aβ total detection: Custom Anti-Amyloid-βtotal acceptor beads (6E10 acceptor beads), biotinylated anti-Amyloid “β1-42” antibody (Perkin Elmer AL203L) and streptavidin (SA) donor beads diluted in AlphaLISA buffer (to the instructions of the supplier). After addition of supernatant to the antibody mix, the assay is incubated for 4.5 h. Amyloid-β peptide release (Aβ42 & AβTotal) is measured with a Pherastar FS (BMG) multimode reader using the alphascreen module.

[2] = tested on: Amyloid-β peptide release (AβTotal), HEK cells overexpressing APP (HEK-APP); assay: Amyloid-β peptide release (AβTotal) assay, AlphaLISA on supernatant of HEK-APP cells; assay type: cell-based; details: ratio Abtot vs Ab42, HEK-APP cells, 24 h
Description: as §1, §2

SMILES: Cc1ncc2oc(-c3ccc(Nc4nccc(NCc5ccccc5C(F)(F)F)n4)cc3)nn12 [Example 74, N2-(4-(5-methylimidazo[5,1-b][1,3,4]oxadiazol-2-yl)phenyl)-N4-(2-(trifluoromethyl)benzyl)pyrimidine-2,4-diamine]
- IC50 [1]: 1 to 2.2 µM
- Abtot/Ab42 selectivity ranges [2]: d (d: 10 fold > selectivity)

SMILES: Cc1ccc(C)c(CC(=O)Nc2ccc(-c3nn4c(C)ncc4o3)nc2)c1 [Example 10, 2-(2,5-Dimethyl-phenyl)-N-[6-(5-methyl-imidazo [5,1-b][1,2,4]oxadiazol-2-yl)-pyridin-3-yl]-acetamide]
- IC50 [1]: 1 to 2.2 µM
- Abtot/Ab42 selectivity ranges [2]: c (c: 50 fold > selectivity ≥ 10 fold)

SMILES: Cc1ncc2oc(-c3ccc(NCc4ccc(Cl)c(Cl)c4)cn3)nn12 [Example 28]
- IC50 [1]: 0.1 to 0.5 µM
- Abtot/Ab42 selectivity ranges [2]: d (d: 10 fold > selectivity)

SMILES: Cc1nc(C)n2nc(-c3ccc(C(=O)NCc4ccccc4C(F)(F)F)cc3)oc12 [Example 23, 4-(5,7-Dimethyl-imidazo[5,1-b][1,2,4]oxadiazol-2-yl)-N-(2-trifluoromethyl-benzyl)-benzamide]
- IC50 [1]: 1 to 2.2 µM
- Abtot/Ab42 selectivity ranges [2]: c (c: 50 fold > selectivity ≥ 10 fold)

SMILES: CCN(Cc1ccccc1)C(=O)c1nn2c(C)ncc2s1 [Example 99, 5-Methyl-imidazo[5,1-b][1,3,4]thiadiazole-2-carboxylic acid benzyl-ethyl-amide]
- IC50 [1]: 1 to 2.2 µM
- Abtot/Ab42 selectivity ranges [2]: d (d: 10 fold > selectivity)

SMILES: Cc1ccccc1CC(=O)Nc1ccc(-c2nn3c(C)ncc3o2)cc1 [Example 60, N-[4-(5-Methyl-imidazo[5,1-b][1,2,4]oxadiazol-2-yl)-phenyl]-2-o-tolyl-acetamide]
- IC50 [1]: 1 to 2.2 µM
- Abtot/Ab42 selectivity ranges [2]: c (c: 50 fold > selectivity ≥ 10 fold)

SMILES: Cc1ncc2oc(-c3ccc(NC(=O)Cc4ccc(OC(F)(F)F)cc4)cc3)nn12 [Example 6, N-[4-(5-Methyl-imidazo[5,1-b][1,2,4]oxadiazol-2-yl)-phenyl]-2-(4-trifluoromethoxy-phenyl)-acetamide]
- IC50 [1]: 0.5 to 1 µM
- Abtot/Ab42 selectivity ranges [2]: c (c: 50 fold > selectivity ≥ 10 fold)

SMILES: COc1cc(NC(=O)Cc2cc(C)ccc2C)ccc1-c1nn2c(C)ncc2s1 [Example 126, 2-(2,5-Dimethyl-phenyl)-N-[3-methoxy-4-(5-methyl-imidazo[5,1-b][1,3,4]thiadiazol-2-yl)-phenyl]-acetamide]
- IC50 [1]: 0.5 to 1 µM
- Abtot/Ab42 selectivity ranges [2]: d (d: 10 fold > selectivity)

SMILES: Cc1ncc2sc(C(=O)N3CCCC3c3ccccc3Cl)nn12 (stereo not drawn) [Example 122, [2-(2-Chloro-phenyl)-pyrrolidin-1-yl]-(5-methyl-imidazo[5,1-b][1,3,4]thiadiazol-2-yl)-methanone]
- IC50 [1]: 1 to 2.2 µM
- Abtot/Ab42 selectivity ranges [2]: d (d: 10 fold > selectivity)

SMILES: Cc1cc(-c2nn3c(C)ncc3o2)ccc1NC(=O)Cc1ccccc1C(F)(F)F [Example 40, N-(2-methyl-4-(5-methylimidazo[5,1-b][1,3,4]oxadiazol-2-yl)phenyl)-2-(2-(trifluoromethyl)phenyl)acetamide]
- IC50 [1]: 0.5 to 1 µM
- Abtot/Ab42 selectivity ranges [2]: b (b: 100 fold > selectivity ≥ 50 fold)

SMILES: Cc1cc(-c2nn3c(C)ncc3o2)ccc1NC(=O)Cc1ccc(C(F)(F)F)cc1 [Example 39, N-(2-methyl-4-(5-methylimidazo[5,1-b][1,3,4]oxadiazol-2-yl)phenyl)-2-(4-(trifluoromethyl)phenyl)acetamide]
- IC50 [1]: 0.5 to 1 µM
- Abtot/Ab42 selectivity ranges [2]: b (b: 100 fold > selectivity ≥ 50 fold)

SMILES: Cc1ncc2oc(-c3ccc(NC(=O)Cc4ccc(Cl)c(C(F)(F)F)c4)cc3)nn12 [Example 4]
- IC50 [1]: 1 to 2.2 µM
- Abtot/Ab42 selectivity ranges [2]: c (c: 50 fold > selectivity ≥ 10 fold)

SMILES: Cc1ncc2oc(-c3ccc(C(=O)NCc4cccc5ccccc45)cc3)nn12 [Example 86, 4-(5-methylimidazo[5,1-b][1,3,4]oxadiazol-2-yl)-N-(naphthalen-1-ylmethyl)benzamide]
- IC50 [1]: 0.5 to 1 µM
- Abtot/Ab42 selectivity ranges [2]: b (b: 100 fold > selectivity ≥ 50 fold)

SMILES: Cc1ncc2sc(-c3nnc(NCc4ccc(F)cc4)o3)nn12 [Example 103, (4-Fluoro-benzyl)-[5-(5-methyl-imidazo[5,1-b][1,3,4]thiadiazol-2-yl)-[1,3,4]oxadiazol-2-yl]-amine]
- IC50 [1]: 0.5 to 1 µM
- Abtot/Ab42 selectivity ranges [2]: d (d: 10 fold > selectivity)

SMILES: Cc1ncc2oc(-c3ccc(NC(=O)Nc4ccc(OC(F)(F)F)cc4)cc3)nn12 [Example 59, 1-[4-(5-Methyl-imidazo[5,1-b][1,2,4]oxadiazol-2-yl)-phenyl]-3-(4-trifluoromethoxy-phenyl)-urea]
- IC50 [1]: 1 to 2.2 µM
- Abtot/Ab42 selectivity ranges [2]: c (c: 50 fold > selectivity ≥ 10 fold)

SMILES: Cc1cc(-c2nn3c(C)ncc3o2)ccc1NC(=O)Cc1ccc(OC(F)(F)F)cc1 [Example 45, N-(2-methyl-4-(5-methylimidazo[5,1-b][1,3,4]oxadiazol-2-yl)phenyl)-2-(4-(trifluoromethoxy)phenyl)acetamide]
- IC50 [1]: 0.5 to 1 µM
- Abtot/Ab42 selectivity ranges [2]: b (b: 100 fold > selectivity ≥ 50 fold)

SMILES: Cc1ncc2sc(-c3ccc(C(=O)NCc4cccc5ccccc45)cc3)nn12 [Example 127, 4-(5-Methyl-imidazo[5,1-b][1,3,4]thiadiazol-2-yl)-N-naphthalen-1-ylmethyl-benzamide]
- IC50 [1]: 0.5 to 1 µM
- Abtot/Ab42 selectivity ranges [2]: b (b: 100 fold > selectivity ≥ 50 fold)

SMILES: Cc1ccc(C)c(CC(=O)Nc2ccc(-c3nn4c(C)ncc4o3)cc2C)c1 [Example 38]
- IC50 [1]: 0.1 to 0.5 µM
- Abtot/Ab42 selectivity ranges [2]: a (a: selectivity ≥ 100 fold)

SMILES: Cc1cccc(CNc2ccnc(Nc3ccc(-c4nn5c(C)ncc5o4)cc3)n2)c1 [Example 75, N4-(3-methylbenzyl)-N2-(4-(5-methylimidazo[5,1-b][1,3,4]oxadiazol-2-yl)phenyl)pyrimidine-2,4-diamine]
- IC50 [1]: 1 to 2.2 µM
- Abtot/Ab42 selectivity ranges [2]: d (d: 10 fold > selectivity)

SMILES: Cc1ncc2sc(C(=O)N3CCCC(c4ccc(F)cc4)C3)nn12 (stereo not drawn) [Example 109, [3-(4-Fluoro-phenyl)-piperidin-1-yl]-(5-methyl-imidazo[5,1-b][1,3,4]thiadiazol-2-yl)-methanone]
- IC50 [1]: 1 to 2.2 µM
- Abtot/Ab42 selectivity ranges [2]: d (d: 10 fold > selectivity)

SMILES: Cc1ncc2sc(C(=O)NCCc3c[nH]c4ccccc34)nn12 [Example 94, 5-Methyl-imidazo[5,1-b][1,3,4]thiadiazole-2-carboxylic acid [2-(1H-indol-3-yl)-ethyl]-amide]
- IC50 [1]: 0.5 to 1 µM
- Abtot/Ab42 selectivity ranges [2]: d (d: 10 fold > selectivity)

SMILES: CCC(C(=O)Nc1ccc(-c2nn3c(C)ncc3o2)nc1)c1ccccc1 (stereo not drawn) [Example 85, N-[6-(5-Methyl-imidazo[5,1-b][1,2,4]oxadiazol-2-yl)-pyridin-3-yl]-2-phenyl-butyramide]
- IC50 [1]: 1 to 2.2 µM
- Abtot/Ab42 selectivity ranges [2]: c (c: 50 fold > selectivity ≥ 10 fold)

SMILES: Cc1cc(-c2nn3c(C)ncc3o2)ccc1NC(=O)Cc1cccc(C(F)(F)F)c1 [Example 41, N-(2-methyl-4-(5-methylimidazo[5,1-b][1,3,4]oxadiazol-2-yl)phenyl)-2-(3-(trifluoromethyl)phenyl)acetamide]
- IC50 [1]: 0.5 to 1 µM
- Abtot/Ab42 selectivity ranges [2]: b (b: 100 fold > selectivity ≥ 50 fold)

SMILES: Cc1cc(-c2nn3c(C)ncc3o2)ccc1NC(=O)Cc1cccc(Cl)c1 [Example 43, 2-(3-chlorophenyl)-N-(2-methyl-4-(5-methylimidazo[5,1-b][1,3,4]oxadiazol-2-yl)phenyl)acetamide]
- IC50 [1]: 1 to 2.2 µM
- Abtot/Ab42 selectivity ranges [2]: c (c: 50 fold > selectivity ≥ 10 fold)

SMILES: Cc1ncc2oc(-c3ccc(NC(=O)Cc4ccccc4C(F)(F)F)cc3)nn12 [Example 1, N-[4-(5-Methyl-imidazo[5,1-b][1,2,4]oxadiazol-2-yl)-phenyl]-2-(2-trifluoromethyl-phenyl)-acetamide]
- IC50 [1]: 0.5 to 1 µM
- Abtot/Ab42 selectivity ranges [2]: b (b: 100 fold > selectivity ≥ 50 fold)

SMILES: Cc1ncc2oc(-c3ccc(Nc4nc5c(s4)CCCC5c4ccc(F)cc4)cc3)nn12 (stereo not drawn) [Example 27, [4-(4-Fluoro-phenyl)-4,5,6,7-tetrahydro-benzothiazol-2-yl]-[4-(5-methyl-imidazo[5,1-b][1,2,4]oxadiazol-2-yl)-phenyl]-amine]
- IC50 [1]: 1 to 2.2 µM
- Abtot/Ab42 selectivity ranges [2]: d (d: 10 fold > selectivity)

SMILES: Cc1ncc2oc(-c3ccc(Nc4ccn(Cc5ccc(Cl)c(Cl)c5)n4)cc3)nn12 [Example 30, [1-(3,4-Dichloro-benzyl)-1H-pyrazol-3-yl]-[4-(5-methyl-imidazo[5,1-b][1,2,4]oxadiazol-2-yl)-phenyl]-amine]
- IC50 [1]: 1 to 2.2 µM
- Abtot/Ab42 selectivity ranges [2]: c (c: 50 fold > selectivity ≥ 10 fold)

SMILES: Cc1ncc2oc(-c3ccc(NC(=O)Cc4cccc5ccccc45)cn3)nn12 [Example 13, N-[6-(5-Methyl-imidazo[5,1-b][1,2,4]oxadiazol-2-yl)-pyridin-3-yl]-2-naphthalen-1-yl-acelamide]
- IC50 [1]: 1 to 2.2 µM
- Abtot/Ab42 selectivity ranges [2]: c (c: 50 fold > selectivity ≥ 10 fold)

SMILES: Cc1ncc2oc(-c3ccc(NC(=O)Cc4ccc(Oc5ccccc5)cc4)cn3)nn12 [Example 78, N-[6-(5-Methyl-imidazo[5,1-b][1,2,4]oxadiazol-2-yl)-pyridin-3-yl]-2-(4-phenoxy-phenyl)-acetamide]
- IC50 [1]: 1 to 2.2 µM
- Abtot/Ab42 selectivity ranges [2]: c (c: 50 fold > selectivity ≥ 10 fold)

SMILES: Cc1ncc2oc(-c3ccc(NC(=O)C(c4ccccc4)c4ccccc4)cn3)nn12 [Example 80, N-[6-(5-Methyl-imidazo[5,1-b][1,2,4]oxadiazol-2-yl)-pyridin-3-yl]-2,2-diphenyl-acetamide]
- IC50 [1]: 0.5 to 1 µM
- Abtot/Ab42 selectivity ranges [2]: c (c: 50 fold > selectivity ≥ 10 fold)
